Data: ChEMBL document CHEMBL4251622, “Design, synthesis, and biological evaluation of polo-like kinase 1/eukaryotic elongation factor 2 kinase (PLK1/EEF2K) dual inhibitors for regulating breast cancer cells apoptosis and autophagy” (Eur J Med Chem, 2018)
Activity calls are given as the source filed them. No cut-off for these calls is given here.

How the values were obtained:
[1] = target: T1, Eukaryotic elongation factor 2 kinase (Homo sapiens) (UniProt O00418); test: Inhibition of GST-tagged EEF2K (unknown origin) at 20 uM using biotinylated EEF2 peptide substrate by HTRF assay relative to control
T1 sequence (whole entry): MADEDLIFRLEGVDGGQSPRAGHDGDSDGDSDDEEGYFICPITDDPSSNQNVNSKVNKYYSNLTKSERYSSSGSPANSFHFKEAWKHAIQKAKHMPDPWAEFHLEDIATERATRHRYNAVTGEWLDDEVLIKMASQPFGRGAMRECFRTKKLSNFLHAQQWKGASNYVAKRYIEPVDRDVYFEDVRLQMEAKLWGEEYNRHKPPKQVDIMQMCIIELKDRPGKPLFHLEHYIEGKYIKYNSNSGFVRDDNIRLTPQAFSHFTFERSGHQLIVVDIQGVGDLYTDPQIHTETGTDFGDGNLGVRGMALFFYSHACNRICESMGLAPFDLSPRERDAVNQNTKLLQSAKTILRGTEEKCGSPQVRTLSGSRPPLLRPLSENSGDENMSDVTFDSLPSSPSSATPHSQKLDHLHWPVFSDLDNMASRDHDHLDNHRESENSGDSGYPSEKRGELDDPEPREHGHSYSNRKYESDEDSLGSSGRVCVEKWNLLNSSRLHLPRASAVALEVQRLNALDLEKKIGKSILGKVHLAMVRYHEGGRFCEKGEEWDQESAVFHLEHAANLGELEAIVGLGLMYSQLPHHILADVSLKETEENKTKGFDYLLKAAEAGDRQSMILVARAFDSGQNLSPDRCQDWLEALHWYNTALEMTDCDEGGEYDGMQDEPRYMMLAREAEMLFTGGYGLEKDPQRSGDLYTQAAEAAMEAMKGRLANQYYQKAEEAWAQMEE

[2] = target: Serine/threonine-protein kinase PLK1 (Homo sapiens, UniProt P53350); test: Inhibition of full length human PLK1 using casein as substrate after 40 mins in presence of [gamma-33P]-ATP by radiometric assay
MCF7 = test: Cytotoxicity against human MCF7 cells after 24 hrs by MTT assay; assay type: functional, cell-based; conditions: MCF7, 24 h
BT-483 [3] = test: Induction of apoptosis in human BT-483 cells assessed as late apoptotic cells at 10 uM by Annexin V-FITC/propidium iodide staining based flow cytometry (reference value: 0.36%); assay type: functional
BT-483 [4] = test: Induction of autophagy in human BT-483 cells transfected with GFP-fused LC3 assessed as aggregation of GFP-LC3 punctures after 6 hrs by DAPI staining based assay; assay type: functional, cell-based
BT-483 [5] = test: Cell cycle arrest in human BT-483 cells assessed as accumulation at sub-G1 phase at 5 to 10 uM after 24 to 72 hrs; assay type: functional, cell-based
BT-483 [6] = test: Downregulation of Bcl2 protein expression in human BT-483 cells at 5 to 10 uM by Western blot analysis; assay type: functional, cell-based
BT-483 [7] = test: Upregulation of cleaved caspase-3 protein expression in human BT-483 cells at 5 to 10 uM by Western blot analysis; assay type: functional, cell-based
[8] = system: Tyrosine-protein kinase ABL1 (Homo sapiens), P00519 [E255K]; test: Inhibition of human phosphorylated ABL1 E255K mutant (S229 to K512 residues) expressed in mammalian expression system assessed as residual activity at 1 uM by Kinomescan method relative to control
[9] = target: Atypical kinase COQ8A, mitochondrial (Homo sapiens) (UniProt Q8NI60); test: Inhibition of wild-type human […] ADCK3 (M280 to Q647 residues) expressed in bacterial expression system assessed as residual activity at 1 uM by Kinomescan method relative to control
Sequence of Atypical kinase COQ8A, mitochondrial (Homo sapiens) (Q8NI60 163-647 limits assumed): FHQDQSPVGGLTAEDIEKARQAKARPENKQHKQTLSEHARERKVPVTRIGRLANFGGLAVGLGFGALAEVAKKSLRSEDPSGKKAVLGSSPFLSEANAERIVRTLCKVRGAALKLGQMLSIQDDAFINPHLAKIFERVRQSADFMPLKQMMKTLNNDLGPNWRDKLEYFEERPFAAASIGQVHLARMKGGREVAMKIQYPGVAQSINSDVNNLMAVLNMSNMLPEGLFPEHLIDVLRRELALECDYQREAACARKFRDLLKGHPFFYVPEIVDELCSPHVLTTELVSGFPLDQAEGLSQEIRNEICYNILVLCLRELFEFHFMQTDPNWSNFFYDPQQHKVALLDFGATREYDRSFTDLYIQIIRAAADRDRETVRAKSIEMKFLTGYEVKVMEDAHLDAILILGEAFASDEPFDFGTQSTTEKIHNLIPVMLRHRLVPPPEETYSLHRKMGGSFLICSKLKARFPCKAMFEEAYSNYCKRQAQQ

[10] = target: Bone morphogenetic protein receptor type-2 (Homo sapiens) (UniProt Q13873); test: Inhibition of wild-type human partial length BMPR2 (R179 to Q526 residues) expressed in mammalian expression system assessed as residual activity at 1 uM by Kinomescan method relative to control
Sequence of Bone morphogenetic protein receptor type-2 (Homo sapiens) (Q13873 whole entry, the tested form may be a part): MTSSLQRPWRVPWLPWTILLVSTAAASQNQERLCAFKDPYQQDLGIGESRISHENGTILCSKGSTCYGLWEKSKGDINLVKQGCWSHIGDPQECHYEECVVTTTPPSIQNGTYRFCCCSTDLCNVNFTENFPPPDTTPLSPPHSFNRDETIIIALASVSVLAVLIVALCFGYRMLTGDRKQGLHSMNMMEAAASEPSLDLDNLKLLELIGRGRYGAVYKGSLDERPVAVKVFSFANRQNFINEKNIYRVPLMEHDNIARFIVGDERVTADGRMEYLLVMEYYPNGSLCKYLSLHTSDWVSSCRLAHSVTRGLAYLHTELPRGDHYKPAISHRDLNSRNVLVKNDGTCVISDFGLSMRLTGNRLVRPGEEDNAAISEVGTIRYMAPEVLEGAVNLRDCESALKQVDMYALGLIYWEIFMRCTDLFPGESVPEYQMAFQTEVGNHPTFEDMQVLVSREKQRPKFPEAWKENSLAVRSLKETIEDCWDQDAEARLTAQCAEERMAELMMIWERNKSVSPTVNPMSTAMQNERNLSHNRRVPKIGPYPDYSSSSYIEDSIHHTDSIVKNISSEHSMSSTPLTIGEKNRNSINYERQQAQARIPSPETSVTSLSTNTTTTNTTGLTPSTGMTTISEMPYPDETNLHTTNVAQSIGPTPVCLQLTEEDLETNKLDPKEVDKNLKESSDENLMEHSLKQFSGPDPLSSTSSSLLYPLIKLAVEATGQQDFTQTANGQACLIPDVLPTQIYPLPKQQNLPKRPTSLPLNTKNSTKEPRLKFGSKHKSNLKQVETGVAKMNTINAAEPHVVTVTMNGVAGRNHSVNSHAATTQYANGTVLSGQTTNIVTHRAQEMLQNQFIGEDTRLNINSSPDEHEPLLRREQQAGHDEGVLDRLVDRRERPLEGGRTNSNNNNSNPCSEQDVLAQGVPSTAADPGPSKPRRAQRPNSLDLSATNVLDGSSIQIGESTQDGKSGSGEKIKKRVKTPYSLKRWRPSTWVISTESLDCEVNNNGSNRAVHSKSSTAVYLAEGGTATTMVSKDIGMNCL

[11] = target: Cyclin-dependent kinase 19 (Homo sapiens) (UniProt Q9BWU1); test: Inhibition of wild-type human partial length CDK11 (M1 to N360 residues) expressed in bacterial expression system assessed as residual activity at 1 uM by Kinomescan method relative to control
[12] = target: Cyclin-dependent kinase 9 (Homo sapiens) (UniProt P50750); test: Inhibition of wild-type human full length CDK9 (M1 to F372 residues) expressed in bacterial expression system assessed as residual activity at 1 uM by Kinomescan method relative to control
Sequence of Cyclin-dependent kinase 9 (Homo sapiens) (P50750 whole entry, the tested form may be a part): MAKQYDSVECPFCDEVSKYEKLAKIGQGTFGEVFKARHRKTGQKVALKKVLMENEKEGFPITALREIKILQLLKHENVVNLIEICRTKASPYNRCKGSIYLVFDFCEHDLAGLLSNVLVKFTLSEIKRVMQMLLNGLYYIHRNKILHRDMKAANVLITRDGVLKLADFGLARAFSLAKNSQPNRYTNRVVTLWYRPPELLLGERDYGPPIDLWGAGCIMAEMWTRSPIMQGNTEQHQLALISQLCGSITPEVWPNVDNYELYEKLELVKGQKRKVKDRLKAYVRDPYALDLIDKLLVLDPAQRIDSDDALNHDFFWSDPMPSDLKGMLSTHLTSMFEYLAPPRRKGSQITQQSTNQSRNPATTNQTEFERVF

[13] = target: T1, Eukaryotic elongation factor 2 kinase (Homo sapiens); test: Inhibition of EEF2K (unknown origin) assessed as residual activity at 1 uM by Kinomescan assay relative to control
[14] = target: Mitogen-activated protein kinase 6 (Homo sapiens) (UniProt Q16659); test: Inhibition of wild-type human partial length ERK3 (M1 to P413 residues) expressed in bacterial expression system assessed as residual activity at 1 uM by Kinomescan method relative to control
Sequence of Mitogen-activated protein kinase 6 (Homo sapiens) (Q16659 whole entry, the tested form may be a part): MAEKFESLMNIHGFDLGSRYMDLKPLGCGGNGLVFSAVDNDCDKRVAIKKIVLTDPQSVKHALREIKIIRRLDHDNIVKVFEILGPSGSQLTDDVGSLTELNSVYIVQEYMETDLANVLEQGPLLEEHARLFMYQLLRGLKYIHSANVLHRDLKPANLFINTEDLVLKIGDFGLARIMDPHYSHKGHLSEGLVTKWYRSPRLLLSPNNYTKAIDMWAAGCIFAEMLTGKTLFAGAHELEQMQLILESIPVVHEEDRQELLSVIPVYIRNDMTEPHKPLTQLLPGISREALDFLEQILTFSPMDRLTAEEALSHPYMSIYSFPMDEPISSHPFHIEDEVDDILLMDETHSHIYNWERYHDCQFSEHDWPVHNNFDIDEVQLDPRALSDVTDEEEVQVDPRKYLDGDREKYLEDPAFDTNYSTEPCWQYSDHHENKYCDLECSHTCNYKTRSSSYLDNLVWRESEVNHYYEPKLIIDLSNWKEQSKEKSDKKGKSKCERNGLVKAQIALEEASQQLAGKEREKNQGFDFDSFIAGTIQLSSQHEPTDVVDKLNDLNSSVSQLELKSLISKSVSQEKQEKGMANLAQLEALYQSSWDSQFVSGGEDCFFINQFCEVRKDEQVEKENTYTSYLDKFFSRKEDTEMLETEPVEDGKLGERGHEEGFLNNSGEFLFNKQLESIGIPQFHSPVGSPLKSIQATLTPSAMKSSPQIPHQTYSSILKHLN

[15] = target: Serine/threonine-protein kinase STK11 (Homo sapiens) (UniProt Q15831); test: Inhibition of wild-type human full length LKB1 (M1 to Q433 residues) expressed in bacterial expression system assessed as residual activity at 1 uM by Kinomescan method relative to control
Sequence of Serine/threonine-protein kinase STK11 (Homo sapiens) (Q15831 whole entry, the tested form may be a part): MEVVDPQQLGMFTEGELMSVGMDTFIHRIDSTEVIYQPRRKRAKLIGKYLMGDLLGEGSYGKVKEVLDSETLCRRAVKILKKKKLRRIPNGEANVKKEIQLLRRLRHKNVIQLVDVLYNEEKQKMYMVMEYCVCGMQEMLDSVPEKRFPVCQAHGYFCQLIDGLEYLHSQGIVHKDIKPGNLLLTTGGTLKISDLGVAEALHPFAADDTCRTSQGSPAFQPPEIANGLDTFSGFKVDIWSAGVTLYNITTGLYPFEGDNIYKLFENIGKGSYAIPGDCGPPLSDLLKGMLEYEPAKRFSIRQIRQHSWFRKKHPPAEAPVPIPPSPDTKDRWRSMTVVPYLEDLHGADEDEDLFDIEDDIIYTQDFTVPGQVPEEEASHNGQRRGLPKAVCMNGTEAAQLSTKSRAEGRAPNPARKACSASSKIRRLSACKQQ

[16] = target: MAP kinase-interacting serine/threonine-protein kinase 1 (Homo sapiens) (UniProt Q9BUB5); test: Inhibition of wild-type human full length MKNK1 (M1 to L424 residues) expressed in mammalian expression system assessed as residual activity at 1 uM by Kinomescan method relative to control
Sequence of MAP kinase-interacting serine/threonine-protein kinase 1 (Homo sapiens) (Q9BUB5 whole entry, looked up, the tested form may be a part): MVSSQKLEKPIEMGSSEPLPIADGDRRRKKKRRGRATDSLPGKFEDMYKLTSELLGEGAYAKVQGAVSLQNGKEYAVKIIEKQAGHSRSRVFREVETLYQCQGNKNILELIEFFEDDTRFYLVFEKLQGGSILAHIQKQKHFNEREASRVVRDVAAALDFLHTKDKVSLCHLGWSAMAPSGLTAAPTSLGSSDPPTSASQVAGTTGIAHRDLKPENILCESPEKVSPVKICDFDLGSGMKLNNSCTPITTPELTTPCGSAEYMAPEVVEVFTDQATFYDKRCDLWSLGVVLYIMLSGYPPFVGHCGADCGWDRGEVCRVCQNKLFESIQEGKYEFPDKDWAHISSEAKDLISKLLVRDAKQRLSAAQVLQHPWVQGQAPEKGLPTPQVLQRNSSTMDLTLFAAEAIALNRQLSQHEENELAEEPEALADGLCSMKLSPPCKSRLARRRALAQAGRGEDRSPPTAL

[17] = target: MAP kinase-interacting serine/threonine-protein kinase 2 (Homo sapiens) (UniProt Q9HBH9); test: Inhibition of wild-type human partial length MKNK2 (G63 to S388 residues) expressed in mammalian expression system assessed as residual activity at 1 uM by Kinomescan method relative to control
Sequence of MAP kinase-interacting serine/threonine-protein kinase 2 (Homo sapiens) (Q9HBH9 whole entry, looked up, the tested form may be a part): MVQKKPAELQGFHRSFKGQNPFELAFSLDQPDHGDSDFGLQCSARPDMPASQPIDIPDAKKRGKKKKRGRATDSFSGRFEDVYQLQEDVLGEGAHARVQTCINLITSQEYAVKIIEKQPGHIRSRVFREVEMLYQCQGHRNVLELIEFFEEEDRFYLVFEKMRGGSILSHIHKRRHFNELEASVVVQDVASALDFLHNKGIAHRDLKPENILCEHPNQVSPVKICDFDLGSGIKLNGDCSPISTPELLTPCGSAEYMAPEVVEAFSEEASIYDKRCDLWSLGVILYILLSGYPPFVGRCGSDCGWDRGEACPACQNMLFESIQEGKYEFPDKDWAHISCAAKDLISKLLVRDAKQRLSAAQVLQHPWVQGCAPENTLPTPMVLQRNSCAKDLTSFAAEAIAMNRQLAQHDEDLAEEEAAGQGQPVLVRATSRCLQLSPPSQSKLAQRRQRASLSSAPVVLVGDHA

[18] = target: Mitogen-activated protein kinase 14 (Homo sapiens) (UniProt Q16539); test: Inhibition of wild-type human full length p38-alpha (M1 to S360 residues) expressed in bacterial expression system assessed as residual activity at 1 uM by Kinomescan method relative to control
Sequence of Mitogen-activated protein kinase 14 (Homo sapiens) (Q16539 whole entry, the tested form may be a part, canonical isoform): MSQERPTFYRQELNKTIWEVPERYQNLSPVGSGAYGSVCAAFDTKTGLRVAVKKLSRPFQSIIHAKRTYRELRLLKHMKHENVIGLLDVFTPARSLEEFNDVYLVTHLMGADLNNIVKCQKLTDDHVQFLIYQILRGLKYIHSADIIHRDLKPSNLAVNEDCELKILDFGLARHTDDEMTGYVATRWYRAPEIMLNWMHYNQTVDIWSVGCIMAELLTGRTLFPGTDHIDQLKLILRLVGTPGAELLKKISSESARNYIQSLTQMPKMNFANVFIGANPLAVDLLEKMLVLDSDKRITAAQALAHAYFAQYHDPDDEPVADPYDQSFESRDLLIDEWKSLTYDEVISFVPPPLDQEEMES

[19] = target: Phosphatidylinositol 4,5-bisphosphate 3-kinase catalytic subunit gamma isoform (Homo sapiens) (UniProt P48736); test: Inhibition of wild-type human partial length PIK3CG (S144 to A1102 residues) expressed in mammalian expression system assessed as residual activity at 1 uM by Kinomescan method relative to control
[20] = target: Protein kinase C epsilon type (Homo sapiens) (UniProt Q02156); test: Inhibition of wild-type human partial length PRKCE (A378 to P737 residues) expressed in mammalian expression system assessed as residual activity at 1 uM by Kinomescan method relative to control
[21] = target: SRSF protein kinase 3 (Homo sapiens) (UniProt Q9UPE1); test: Inhibition of wild-type human partial length SRPK3 (P41 to P567 residues) expressed in bacterial expression system assessed as residual activity at 1 uM by Kinomescan method relative to control
Sequence of SRSF protein kinase 3 (Homo sapiens) (Q9UPE1 whole entry, the tested form may be a part): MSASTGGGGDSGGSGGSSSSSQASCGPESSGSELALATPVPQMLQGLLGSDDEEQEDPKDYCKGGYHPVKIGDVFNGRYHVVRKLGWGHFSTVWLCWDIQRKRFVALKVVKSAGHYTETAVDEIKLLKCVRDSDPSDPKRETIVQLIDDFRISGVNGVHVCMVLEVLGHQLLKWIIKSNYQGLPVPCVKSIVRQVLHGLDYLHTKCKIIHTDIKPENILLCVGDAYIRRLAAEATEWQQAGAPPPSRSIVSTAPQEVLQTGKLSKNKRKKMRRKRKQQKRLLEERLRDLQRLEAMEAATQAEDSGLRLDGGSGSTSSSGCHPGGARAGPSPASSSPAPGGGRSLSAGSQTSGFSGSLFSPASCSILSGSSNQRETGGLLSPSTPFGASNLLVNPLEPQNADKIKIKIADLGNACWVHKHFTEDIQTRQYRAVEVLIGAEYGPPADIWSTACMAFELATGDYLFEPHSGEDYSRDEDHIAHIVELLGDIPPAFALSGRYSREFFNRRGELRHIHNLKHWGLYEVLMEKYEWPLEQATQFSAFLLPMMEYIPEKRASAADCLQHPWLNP

[22] = target: Mitogen-activated protein kinase kinase kinase 9 (Homo sapiens) (UniProt P80192); test: Inhibition of wild-type human partial length MLK1 (V88 to W426 residues) expressed in bacterial expression system assessed as residual activity at 1 uM by Kinomescan method relative to control

SMILES: CCNc1cc(-c2ccc(NC(=O)Nc3cccc(Cl)c3)cc2C(F)(F)F)ccn1
- inhibition [1]: 82.7%
- IC50 [2]: 85 nM
- IC50 (MCF7): 1240 nM
- Activity (BT-483 [3]): 12%
- Activity (BT-483 [4]): Active
- Activity (BT-483 [5]): Active
- Activity (BT-483 [6]): Active
- Activity (BT-483 [7]): Active
- Activity [8]: 82%
- Activity [9]: 94%
- Activity [10]: 94%
- Activity [11]: 89%
- Activity [12]: 91%
- Activity [13]: 11%
- Activity [14]: 73%
- Activity [15]: 75%
- Activity [16]: 81%
- Activity [17]: 73%
- Activity [18]: 84%
- Activity [19]: 74%
- Activity [20]: 67%
- Activity [21]: 98%
- Activity [22]: 67%
